# Measured values: US9708314B2, “Heterocyclic amide compound” (NISSAN CHEMICAL INDUSTRIES, LTD., priority 2013, dated 2017)
# Where “and” joins values, the source holds several entries; their conditions need not be identical. Equal entries are not always repeated.
# Columns and labels:
# Assay type in all cases: in vivo
# Monochoria vaginalis = assay: Test Example 2: herbicidal activity, application during weed generation in submerged conditions; conditions: Eighteenth Table; application herbicide amount 320 g/ha
# Outline: (§1)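 Paddy-type pot test: flooded soil, 4 cm depth, greenhouse 25–30 °C. Emulsion formulation diluted in water, applied to water surface at 1–2 leaf stage; rate expressed as g/ha. Read-out at 3 wk, 0–5 score.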
# [1] = tested on: Echinochloa oryzacola Vasing.; assay: as above; conditions: Eighteenth Table; application herbicide amount 320 g/ha
# Outline: as §1
# Scirpus juncoides = assay: as above; conditions: Eighteenth Table; application herbicide amount 320 g/ha
# Outline: as §1
# Setaria viridis = assay: Test Example 4: herbicidal effect by application to foliage (diluvial soil, plastic box); conditions: foliage application, 320 g/ha
# Outline: (§2)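 Read-out is a 0–5 visual grade of herbicidal ratio (5: ≥90%, almost withered; 0: ≤5%) taken three weeks after treatment. Compound was applied as a diluted emulsion to stem and leaf parts of 14-day greenhouse-grown plants (25° C. to 30° C.) at rates expressed as g/ha.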
# Chenopodium album = assay: as above; conditions: foliage application, 320 g/ha
# Outline: as §2
# Amaranthus retroflexus = assay: as above; conditions: foliage application, 320 g/ha
# Outline: as §2
# Apera spica-venti. = assay: as above; conditions: foliage application, 320 g/ha
# Outline: as §2
# Lolium multiflorum Lam. = assay: as above; conditions: foliage application, 320 g/ha
# Outline: as §2
# Abutilon theophrasti = assay: as above; conditions: foliage application, 320 g/ha
# Outline: as §2
# Alopecurus myosuroides = assay: as above; conditions: foliage application, 320 g/ha
# Outline: as §2
# Veronica persica = assay: as above; conditions: foliage application, 320 g/ha
# Outline: as §2
# Digitaria ciliaris = assay: as above; conditions: foliage application, 320 g/ha
# Outline: as §2
# [2] = tested on: Echinochloa crus-galli var. crus-galli; assay: as above; conditions: foliage application, 320 g/ha
# Outline: as §2
# Stellaria media = assay: as above; conditions: foliage application, 320 g/ha
# Outline: as §2
# Avena fatua = assay: as above; conditions: foliage application, 320 g/ha
# Outline: as §2
# Galium spurium = assay: as above; conditions: foliage application, 320 g/ha
# Outline: as §2
# Triticum aestivum = assay: Test Example 4: effect on crop by application to foliage (diluvial soil, plastic box); conditions: foliage application, 320 g/ha
# Outline: as §2
# Zea mays = assay: as above; conditions: foliage application, 320 g/ha
# Outline: as §2
# [3] = tested on: Beta vulgaris ssp. vulgaris; assay: as above; conditions: foliage application, 320 g/ha
# Outline: as §2
# Brassica campestris L. = assay: as above; conditions: foliage application, 320 g/ha
# Outline: as §2
# [4] = tested on: directly sowed Oryza sativa; assay: as above; conditions: foliage application, 320 g/ha
# Outline: as §2
# Glycine max = assay: as above; conditions: foliage application, 320 g/ha
# Outline: as §2
Structure (SMILES),C (Monochoria vaginalis) herbicidal ratio grade (Monochoria vaginalis),A (Echinochloa oryzicola Vasing.) herbicidal ratio grade [1],B (Scirpus juncoides) herbicidal ratio grade (Scirpus juncoides),G (Setaria viridis) herbicidal effect grade (Setaria viridis),O (Chenopodium album) herbicidal effect grade (Chenopodium album),N (Amaranthus retroflexus) herbicidal effect grade (Amaranthus retroflexus),L (Apera spica-venti.) herbicidal effect grade (Apera spica-venti.),K (Lolium multiflorum Lam.) herbicidal effect grade (Lolium multiflorum Lam.),M (Abutilon theophrasti) herbicidal effect grade (Abutilon theophrasti),J (Alopecurus myosuroides) herbicidal effect grade (Alopecurus myosuroides),R (Veronica persica) herbicidal effect grade (Veronica persica),F (Digitaria ciliaris) herbicidal effect grade (Digitaria ciliaris),H (Echinochloa crus-galli var. crus-galli) herbicidal effect grade [2],P (Stellaria media) herbicidal effect grade (Stellaria media),I (Avena fatua) herbicidal effect grade (Avena fatua),Q (Galium spurium) herbicidal effect grade (Galium spurium),e (Triticum aestivum) effect on crop grade (Triticum aestivum),b (Zea mays) effect on crop grade (Zea mays),f (Beta vulgaris ssp. vulgaris) effect on crop grade [3],g (Brassica campestris L.) effect on crop grade (Brassica campestris L.),also measured
Cn1nnnc1NC(=O)c1ccc(C(F)(F)F)n2c(CCS(C)(=O)=O)nnc12 [2-059],4 (Herbicidal ratio of 70% or more and less than 90%),4 (Herbicidal ratio of 70% or more and less than 90%),3 (Herbicidal ratio of 40% or more and less than 70%),5 (Herbicidal ratio of 90% or more (almost completely withered)),5 (Herbicidal ratio of 90% or more (almost completely withered)),5 (Herbicidal ratio of 90% or more (almost completely withered)),4 (Herbicidal ratio of 70% or more and less than 90%),4 (Herbicidal ratio of 70% or more and less than 90%),5 (Herbicidal ratio of 90% or more (almost completely withered)),4 (Herbicidal ratio of 70% or more and less than 90%),5 (Herbicidal ratio of 90% or more (almost completely withered)),5 (Herbicidal ratio of 90% or more (almost completely withered)),5 (Herbicidal ratio of 90% or more (almost completely withered)),5 (Herbicidal ratio of 90% or more (almost completely withered)),4 (Herbicidal ratio of 70% or more and less than 90%),5 (Herbicidal ratio of 90% or more (almost completely withered)),4 (Herbicidal ratio of 70% or more and less than 90%),5 (Herbicidal ratio of 90% or more (almost completely withered)),5 (Herbicidal ratio of 90% or more (almost completely withered)),5 (Herbicidal ratio of 90% or more (almost completely withered)),d (directly sowed Oryza sativa) effect on crop grade [4]: 5 (Herbicidal ratio of 90% or more (almost completely withered)); c (Glycine max) effect on crop grade (Glycine max): 3 (Herbicidal ratio of 40% or more and less than 70%)
Cn1nnnc1NC(=O)c1ccc(C(F)(F)F)n2c(-c3ccc(Cl)nc3)nnc12 [2-060],5 (Herbicidal ratio of 90% or more (almost completely withered)),5 (Herbicidal ratio of 90% or more (almost completely withered)),4 (Herbicidal ratio of 70% or more and less than 90%) and 3 (Herbicidal ratio of 40% or more and less than 70%),5 (Herbicidal ratio of 90% or more (almost completely withered)),5 (Herbicidal ratio of 90% or more (almost completely withered)),5 (Herbicidal ratio of 90% or more (almost completely withered)),4 (Herbicidal ratio of 70% or more and less than 90%),3 (Herbicidal ratio of 40% or more and less than 70%),5 (Herbicidal ratio of 90% or more (almost completely withered)),3 (Herbicidal ratio of 40% or more and less than 70%),5 (Herbicidal ratio of 90% or more (almost completely withered)),5 (Herbicidal ratio of 90% or more (almost completely withered)),5 (Herbicidal ratio of 90% or more (almost completely withered)),5 (Herbicidal ratio of 90% or more (almost completely withered)),4 (Herbicidal ratio of 70% or more and less than 90%),4 (Herbicidal ratio of 70% or more and less than 90%),4 (Herbicidal ratio of 70% or more and less than 90%),5 (Herbicidal ratio of 90% or more (almost completely withered)),5 (Herbicidal ratio of 90% or more (almost completely withered)),5 (Herbicidal ratio of 90% or more (almost completely withered)),d (directly sowed Oryza sativa) effect on crop grade [4]: 4 (Herbicidal ratio of 70% or more and less than 90%); c (Glycine max) effect on crop grade (Glycine max): 2 (Herbicidal ratio of 20% or more and less than 40%)
Cn1nnnc1NC(=O)c1ccc(C(F)(F)F)n2c(-c3cccs3)nnc12 [2-061],5 (Herbicidal ratio of 90% or more (almost completely withered)),4 (Herbicidal ratio of 70% or more and less than 90%),5 (Herbicidal ratio of 90% or more (almost completely withered)),5 (Herbicidal ratio of 90% or more (almost completely withered)),5 (Herbicidal ratio of 90% or more (almost completely withered)),5 (Herbicidal ratio of 90% or more (almost completely withered)),3 (Herbicidal ratio of 40% or more and less than 70%),4 (Herbicidal ratio of 70% or more and less than 90%),4 (Herbicidal ratio of 70% or more and less than 90%),3 (Herbicidal ratio of 40% or more and less than 70%),5 (Herbicidal ratio of 90% or more (almost completely withered)),5 (Herbicidal ratio of 90% or more (almost completely withered)),5 (Herbicidal ratio of 90% or more (almost completely withered)),5 (Herbicidal ratio of 90% or more (almost completely withered)),4 (Herbicidal ratio of 70% or more and less than 90%),3 (Herbicidal ratio of 40% or more and less than 70%),3 (Herbicidal ratio of 40% or more and less than 70%),5 (Herbicidal ratio of 90% or more (almost completely withered)),5 (Herbicidal ratio of 90% or more (almost completely withered)),4 (Herbicidal ratio of 70% or more and less than 90%),d (directly sowed Oryza sativa) effect on crop grade [4]: 4 (Herbicidal ratio of 70% or more and less than 90%); c (Glycine max) effect on crop grade (Glycine max): 3 (Herbicidal ratio of 40% or more and less than 70%)
Cc1cc(-c2nnc3c(C(=O)Nc4nnnn4C)ccc(C(F)(F)F)n23)n(C)n1 [2-062],5 (Herbicidal ratio of 90% or more (almost completely withered)),5 (Herbicidal ratio of 90% or more (almost completely withered)),4 (Herbicidal ratio of 70% or more and less than 90%),5 (Herbicidal ratio of 90% or more (almost completely withered)),5 (Herbicidal ratio of 90% or more (almost completely withered)),5 (Herbicidal ratio of 90% or more (almost completely withered)),5 (Herbicidal ratio of 90% or more (almost completely withered)),5 (Herbicidal ratio of 90% or more (almost completely withered)),5 (Herbicidal ratio of 90% or more (almost completely withered)),4 (Herbicidal ratio of 70% or more and less than 90%),5 (Herbicidal ratio of 90% or more (almost completely withered)),5 (Herbicidal ratio of 90% or more (almost completely withered)),5 (Herbicidal ratio of 90% or more (almost completely withered)),5 (Herbicidal ratio of 90% or more (almost completely withered)),5 (Herbicidal ratio of 90% or more (almost completely withered)),5 (Herbicidal ratio of 90% or more (almost completely withered)),4 (Herbicidal ratio of 70% or more and less than 90%),5 (Herbicidal ratio of 90% or more (almost completely withered)),5 (Herbicidal ratio of 90% or more (almost completely withered)),5 (Herbicidal ratio of 90% or more (almost completely withered)),d (directly sowed Oryza sativa) effect on crop grade [4]: 5 (Herbicidal ratio of 90% or more (almost completely withered)); c (Glycine max) effect on crop grade (Glycine max): 5 (Herbicidal ratio of 90% or more (almost completely withered))
